The record followed here is patent US20070004660A1, “Synergistic Modulation of Flt3 Kinase Using Alkylquinolines and Alkylquinazolines” (priority 2005, published 2007).

The assay relates to MV4-11 cells. Description: Inhibition of MV4-11 cell proliferation (CellTiterGlo, 72 h). The assay is classed as cell-based. Particulars: Homo sapiens; 72 h growth inhibition; uncertainty ±20%.
Turning to `O=C(Nc1ccc(N2CCCC2)cc1)N1CCC(c2ncnc3cc(N4CCN(c5ccccn5)CC4)ccc23)CC1` [Compound 192, 4-[7-(4-Pyridin-2-yl-piperazin-1-yl)-quinazolin-4-yl]-piperidine-1-carboxylic acid (4-pyrrolidin-1-yl-phenyl)-amide], the half-inhibitory concentration (IC50) worked out at 13 nM. With `O=C1CN(c2ccc3c(C4CCN(C(=O)Nc5ccc(N6CCCC6)cc5)CC4)ncnc3c2)CCN1` [Compound 183, 4-[7-(3-Oxo-piperazin-1-yl)-quinazolin-4-yl]-piperidine-1-carboxylic acid (4-pyrrolidin-1-yl-phenyl)-amide] the figure was 18 nM; with `CCN1CCN(c2ccc3c(C4CCN(C(=O)Nc5ccc(N6CCOCC6)cc5)CC4)ncnc3c2)CC1` [Example 136, 4-[7-(4-Ethyl-piperazin-1-yl)-quinazolin-4-yl]-piperidine-1-carboxylic acid (4-morpholin-4-yl-phenyl)-amide], 163 nM; with `CN1CCN(c2ccc3c(C4CCN(C(=O)Nc5ccc(N6CCOCC6)cc5)CC4)ncnc3c2)CC1` [Example 135, 4-[7-(4-Methyl-piperazin-1-yl)-quinazolin-4-yl]-piperidine-1-carboxylic acid (4-morpholin-4-yl-phenyl)-amide], 125 nM. Next, `O=C(Nc1ccc(N2CCCC2)cc1)N1CCC(c2ncnc3cc(OC4CCOCC4)ccc23)CC1` [Compound 189, 4-[7-(Tetrahydro-pyran-4-yloxy)-quinazolin-4-yl]-piperidine-1-carboxylic acid (4-pyrrolidin-1-yl-phenyl)-amide]: 286 nM; `CC(=O)N1CC[C@@H](Oc2ccc3c(C4CCN(C(=O)Nc5ccc(N6CCCC6)cc5)CC4)ncnc3c2)C1` [Example 154, (R)-4-[7-(1-Acetyl-pyrrolidin-3-yloxy)-quinazolin-4-yl]-piperidine-1-carboxylic acid (4-pyrrolidin-1-yl-phenyl)-amide]: 63 nM; `COc1cc2ncnc(C3CCN(C(=O)Nc4ccc5[nH]ccc5c4)CC3)c2cc1OC` [Example 23, 4-(6,7-Dimethoxy-quinazolin-4-yl)-piperidine-1-carboxylic acid (1H-indol-5-yl)-amide]: 2700 nM. With `O=C(Nc1ccc(N2CCOCC2)cc1)N1CCC(c2ncnc3cc(OCCN4CCC[C@H]4CO)ccc23)CC1` [Example 153, (S)-4-{7-[2-(2-Hydroxymethyl-pyrrolidin-1-yl)-ethoxy]-quinazolin-4-yl}-piperidine-1-carboxylic acid (4-morpholin-4-yl-phenyl)-amide] the figure was 395 nM; with `COc1cc2ncnc(C3CCN(C(=O)Nc4ccc(OC5CCC5)nc4)CC3)c2cc1OC` [Example 17, 4-(6,7-Dimethoxy-quinazolin-4-yl)-piperidine-1-carboxylic acid (6-cyclobutoxy-pyridin-3-yl)-amide], 31 nM; with `CN1CCN(c2ccc3c(C4CCN(C(=O)Nc5ccc(N6CCCC6)cc5)CC4)ncnc3c2)CC1=O` [Compound 184, 4-[7-(4-Methyl-3-oxo-piperazin-1-yl)-quinazolin-4-yl]-piperidine-1-carboxylic acid (4-pyrrolidin-1-yl-phenyl)-amide], 58 nM. As for `O=C(Nc1ccc(N2CCCC2)cc1)N1CCC(c2ncnc3cc(N4CCC4)ccc23)CC1` [Example 173, 4-(7-Azetidin-1-yl-quinazolin-4-yl)-piperidine-1-carboxylic acid (4-pyrrolidin-1-yl-phenyl)-amide], the midpoint of inhibition, the IC50, lay at 16 nM.

With `CC(=O)N1CCN(c2ccc3c(C4CCN(C(=O)Nc5ccc(N6CCOCC6)cc5)CC4)ncnc3c2)CC1` [Example 141, 4-[7-(4-Acetyl-piperazin-1-yl)-quinazolin-4-yl]-piperidine-1-carboxylic acid (4-morpholin-4-yl-phenyl)-amide], 79 nM corresponded to half-maximal inhibition (IC50). Next, `CS(=O)(=O)N1CCN(c2ccc3c(C4CCN(C(=O)Nc5ccc(N6CCCC6)cc5)CC4)ncnc3c2)CC1` [Example 167, 4-[7-(4-Methanesulfonyl-piperazin-1-yl)-quinazolin-4-yl]-piperidine-1-carboxylic acid (4-pyrrolidin-1-yl-phenyl)-amide]: 21 nM. For `O=C(COc1ccc2c(C3CCN(C(=O)Nc4ccc(N5CCCC5)cc4)CC3)ncnc2c1)N1CCOCC1` [Example 172, 4-[7-(2-Morpholin-4-yl-2-oxo-ethoxy)-quinazolin-4-yl]-piperidine-1-carboxylic acid (4-pyrrolidin-1-yl-phenyl)-amide], inhibition was half-maximal at 248 nM (IC50).

In turn, `CN(C)CC(=O)N1CCN(c2ccc3c(C4CCN(C(=O)Nc5ccc(N6CCOCC6)cc5)CC4)ncnc3c2)CC1` [Example 144, 4-{7-[4-(2-Dimethylamino-acetyl)-piperazin-1-yl]-quinazolin-4-yl}-piperidine-1-carboxylic acid (4-morpholin-4-yl-phenyl)-amide] returned a concentration for half-maximal inhibition (IC50) of 117 nM.

In turn, `CC(C)Oc1ccc(NC(=O)N2CCC(c3ncnc4ccc(N5CCN(C)CC5)cc34)CC2)cc1` [Example 131, 4-[6-(4-Methyl-piperazin-1-yl)-quinazolin-4-yl]-piperidine-1-carboxylic acid (4-isopropoxy-phenyl)-amide] came in with an IC50 of 2800 nM. Next, `CN1CCC[C@H]1COc1ccc2c(C3CCN(C(=O)Nc4ccc(N5CCCC5)cc4)CC3)ncnc2c1` [Example 151, (S)-4-[7-(1-Methyl-pyrrolidin-2-ylmethoxy)-quinazolin-4-yl]-piperidine-1-carboxylic acid (4-pyrrolidin-1-yl-phenyl)-amide]: 193 nM; `O=C(Nc1ccc(N2CCCC2)cc1)N1CCC(c2ncnc3cc(N4CCN(c5ncccn5)CC4)ccc23)CC1` [Compound 193, 4-[7-(4-Pyrimidin-2-yl-piperazin-1-yl)-quinazolin-4-yl]-piperidine-1-carboxylic acid (4-pyrrolidin-1-yl-phenyl)-amide]: 16 nM; `O=C(Nc1ccc(N2CCCC2)cc1)N1CCC(c2ncnc3cc(OCCN4CCOC4=O)ccc23)CC1` [Example 147, 4-{7-[2-(2-Oxo-oxazolidin-3-yl)-ethoxy]-quinazolin-4-yl}-piperidine-1-carboxylic acid (4-pyrrolidin-1-yl-phenyl)-amide]: 51 nM.

Turning to `O=C(Nc1ccc(N2CCOCC2)cc1)N1CCC(c2ncnc3cc(N4CC[C@H](O)C4)ccc23)CC1` [Example 128, 4-[7-(3-Hydroxy-pyrrolidin-1-yl)-quinazolin-4-yl]-piperidine-1-carboxylic acid (4-morpholin-4-yl-phenyl)-amide], the IC50 turned out to be 16 nM.

In the case of `O=C(Nc1ccc(N2CCOCC2)cc1)N1CCC(c2ncnc3cc(OCCCN4CCOCC4)ccc23)CC1` [Example 133, 4-[7-(3-Morpholin-4-yl-propoxy)-quinazolin-4-yl]-piperidine-1-carboxylic acid (4-morpholin-4-yl-phenyl)-amide], inhibition was half-maximal at 58 nM (IC50). Next, `O=C(Nc1ccc(N2CCCC2)cc1)N1CCC(c2ncnc3cc(N4CCNC4=O)ccc23)CC1` [Compound 178, 4-[7-(2-Oxo-imidazolidin-1-yl)-quinazolin-4-yl]-piperidine-1-carboxylic acid (4-pyrrolidin-1-yl-phenyl)-amide]: 11 nM; `CC(=O)N1CCC(COc2ccc3c(C4CCN(C(=O)Nc5ccc(N6CCCC6)cc5)CC4)ncnc3c2)CC1` [Example 163, 4-[7-(1-Acetyl-piperidin-4-ylmethoxy)-quinazolin-4-yl]-piperidine-1-carboxylic acid (4-pyrrolidin-1-yl-phenyl)-amide]: 20 nM. Next, `COc1cc2ncnc(C3CCN(C(=O)Nc4ccc(N5CCOCC5)cc4)CC3)c2cc1OC` [Example 18, 4-(6,7-Dimethoxy-quinazolin-4-yl)-piperidine-1-carboxylic acid (4-morpholin-4-yl-phenyl)-amide]: 137 nM; `COc1cc2ncnc(C3CCN(C(=O)Nc4ccc5ncsc5c4)CC3)c2cc1OC` [Example 24, 4-(6,7-Dimethoxy-quinazolin-4-yl)-piperidine-1-carboxylic acid benzothiazol-6-ylamide]: 3700 nM. The molecule `CN1CCN(CCOc2ccc3c(C4CCN(C(=O)Nc5ccc(N6CCCC6)cc5)CC4)ncnc3c2)CC1=O` [Compound 202, 4-{7-[2-(4-Methyl-3-oxo-piperazin-1-yl)-ethoxy]-quinazolin-4-yl}-piperidine-1-carboxylic acid (4-pyrrolidin-1-yl-phenyl)-amide] registered a concentration for half-maximal inhibition (IC50) of 74 nM. For the molecule `O=C(Nc1ccc(N2CCCC2)cc1)N1CCC(c2ncnc3cc(OCCN4CCC[C@H]4CO)ccc23)CC1` [Example 152, (S)-4-{7-[2-(2-Hydroxymethyl-pyrrolidin-1-yl)-ethoxy]-quinazolin-4-yl}-piperidine-1-carboxylic acid (4-pyrrolidin-1-yl-phenyl)-amide], half-maximal inhibition (IC50) was put at 21 nM.

`O=C(Nc1ccc(N2CCOCC2)cc1)N1CCC(c2ncnc3cc(N4CCN(CCO)CC4)ccc23)CC1` [Example 137, 4-{7-[4-(2-Hydroxy-ethyl)-piperazin-1-yl]-quinazolin-4-yl}-piperidine-1-carboxylic acid (4-morpholin-4-yl-phenyl)-amide] yielded a half-inhibitory concentration (IC50) of 74 nM.

Consider `O=C(Nc1ccc(N2CCCC2)cc1)N1CCC(c2ncnc3cc(O[C@H]4CCOC4)ccc23)CC1` [Compound 190, (S)-4-[7-(Tetrahydro-furan-3-yloxy)-quinazolin-4-yl]-piperidine-1-carboxylic acid (4-pyrrolidin-1-yl-phenyl)-amide], for which 88 nM corresponded to half-maximal inhibition (IC50).

In turn, `CN1CCN(CCCOc2cc3ncnc(C4CCN(C(=O)Nc5ccc(N6CCOCC6)cc5)CC4)c3cc2F)CC1` [Compound 205, 4-{6-Fluoro-7-[3-(4-methyl-piperazin-1-yl)-propoxy]-quinazolin-4-yl}-piperidine-1-carboxylic acid (4-morpholin-4-yl-phenyl)-amide] displayed an IC50 of 78 nM.

Turning to `CS(=O)(=O)N1CC(Oc2ccc3c(C4CCN(C(=O)Nc5ccc(N6CCCC6)cc5)CC4)ncnc3c2)C1` [Example 171, 4-[7-(1-Methanesulfonyl-azetidin-3-yloxy)-quinazolin-4-yl]-piperidine-1-carboxylic acid (4-pyrrolidin-1-yl-phenyl)-amide], the 50% inhibitory concentration (IC50) was found to be 185 nM.
